# Legend:
# Format in all cases: in vivo
# [1] = tested on: Alopecurus myosuroides (ALOMY); test: Pre-emergence herbicidal glasshouse test on Alopecurus myosuroides; conditions: pre-emergence; 1000 g/h; evaluated after 13 days
# Procedure, shortened: (§1)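 Pre-emergence treatment came one day after sowing, post-emergence treatment after eight days' growth; both used 1000 g/h in a 0.5% Tween 20 acetone/water vehicle. Percent damage, scored 1–5, was read 13 days later.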
# [2] = tested on: Setaria faberi (SETFA); test: Pre-emergence herbicidal glasshouse test on Setaria faberi; conditions: pre-emergence; 1000 g/h; evaluated after 13 days
# Procedure, shortened: as §1
# [3] = tested on: Echinochloa crus-galli (ECHCG); test: Pre-emergence herbicidal glasshouse test on Echinochloa crus-galli; conditions: pre-emergence; 1000 g/h; evaluated after 13 days
# Procedure, shortened: as §1
# [4] = tested on: Solanum nigrum (SOLNI); test: Pre-emergence herbicidal glasshouse test on Solanum nigrum; conditions: pre-emergence; 1000 g/h; evaluated after 13 days
# Procedure, shortened: as §1
# [5] = tested on: Amaranthus retoflexus (AMARE); test: Pre-emergence herbicidal glasshouse test on Amaranthus retoflexus; conditions: pre-emergence; 1000 g/h; evaluated after 13 days
# Procedure, shortened: as §1
# [6] = tested on: Ipomoea hederacea (IPOHE); test: Pre-emergence herbicidal glasshouse test on Ipomoea hederacea; conditions: pre-emergence; 1000 g/h; evaluated after 13 days
# Procedure, shortened: as §1
# [7] = tested on: Alopecurus myosuroides (ALOMY); test: Post-emergence herbicidal glasshouse test on Alopecurus myosuroides; conditions: post-emergence; 1000 g/h; evaluated after 13 days
# Procedure, shortened: as §1
# [8] = tested on: Setaria faberi (SETFA); test: Post-emergence herbicidal glasshouse test on Setaria faberi; conditions: post-emergence; 1000 g/h; evaluated after 13 days
# Procedure, shortened: as §1
# [9] = tested on: Echinochloa crus-galli (ECHCG); test: Post-emergence herbicidal glasshouse test on Echinochloa crus-galli; conditions: post-emergence; 1000 g/h; evaluated after 13 days
# Procedure, shortened: as §1
# [10] = tested on: Solanum nigrum (SOLNI); test: Post-emergence herbicidal glasshouse test on Solanum nigrum; conditions: post-emergence; 1000 g/h; evaluated after 13 days
# Procedure, shortened: as §1
# [11] = tested on: Amaranthus retoflexus (AMARE); test: Post-emergence herbicidal glasshouse test on Amaranthus retoflexus; conditions: post-emergence; 1000 g/h; evaluated after 13 days
# Procedure, shortened: as §1
# [12] = tested on: Ipomoea hederacea (IPOHE); test: Post-emergence herbicidal glasshouse test on Ipomoea hederacea; conditions: post-emergence; 1000 g/h; evaluated after 13 days
# Procedure, shortened: as §1
SMILES,PRE Application ALOMY herbicidal damage (five point scale) [1],PRE Application SETFA herbicidal damage (five point scale) [2],PRE Application ECHCG herbicidal damage (five point scale) [3],PRE Application SOLNI herbicidal damage (five point scale) [4],PRE Application AMARE herbicidal damage (five point scale) [5],PRE Application IPOHE herbicidal damage (five point scale) [6],POST Application ALOMY herbicidal damage (five point scale) [7],POST Application SETFA herbicidal damage (five point scale) [8],POST Application ECHCG herbicidal damage (five point scale) [9],POST Application SOLNI herbicidal damage (five point scale) [10],POST Application AMARE herbicidal damage (five point scale) [11],POST Application IPOHE herbicidal damage (five point scale) [12]
Cc1c(Cl)cccc1-c1c(C(F)(F)F)ccn(-c2cnn(C)c(=O)c2O)c1=O [Compound 7.030],5 (5=80-100% damage),4 (4=60-79% damage),5 (5=80-100% damage),5 (5=80-100% damage),5 (5=80-100% damage),4 (4=60-79% damage),5 (5=80-100% damage),5 (5=80-100% damage),5 (5=80-100% damage),5 (5=80-100% damage),5 (5=80-100% damage),5 (5=80-100% damage)
Cn1ncc(-n2ccc(C(F)(F)F)c(-c3cccc(F)c3)c2=O)c(O)c1=O [Compound 7.012],5 (5=80-100% damage),5 (5=80-100% damage),5 (5=80-100% damage),5 (5=80-100% damage),5 (5=80-100% damage),1 (1=0-19% damage),5 (5=80-100% damage),5 (5=80-100% damage),5 (5=80-100% damage),5 (5=80-100% damage),5 (5=80-100% damage),5 (5=80-100% damage)
Cn1ncc(-n2ccc(C(F)(F)F)c(-c3cccc(C#N)c3)c2=O)c(O)c1=O [Compound 7.019],5 (5=80-100% damage),5 (5=80-100% damage),5 (5=80-100% damage),5 (5=80-100% damage),5 (5=80-100% damage),2 (2=20-39% damage),5 (5=80-100% damage),5 (5=80-100% damage),5 (5=80-100% damage),5 (5=80-100% damage),5 (5=80-100% damage),2 (2=20-39% damage)
Cn1ncc(-c2ccc(Cl)cc2S(C)(=O)=O)c(O)c1=O [Compound 1.061],5 (5=80-100% damage),5 (5=80-100% damage),5 (5=80-100% damage),5 (5=80-100% damage),5 (5=80-100% damage),4 (4=60-79% damage),5 (5=80-100% damage),5 (5=80-100% damage),5 (5=80-100% damage),5 (5=80-100% damage),5 (5=80-100% damage),5 (5=80-100% damage)
